Literature values in patent publication US8329663B2, “Compositions and methods for the treatment of chronic infections” (priority 2008, dated 2012).
Read-outs that look alike come from different tables or passages of the source.

Legend:
[1] = in water
[2] = first (or only) pKa value listed
[3] = second pKa value listed (polyprotic)
[4] = third pKa value listed (polyprotic)

Structure (SMILES)	pKa (in H2O) [1, 2]	pKa (in H2O) [1, 3]	in vitro susceptibility of C. pneumoniae (C. pneumoniae)	pKa (in H2O) [1, 4]
CC(=O)OCC1=C(C(=O)O)N2C(=O)[C@@H](NC(=O)CSc3ccncc3)[C@H]2SC1 [Cephapirin]	2.15	5.44	–	–
CC1(C)S[C@@H]2[C@H](NC(=O)[C@H](N)c3ccc(O)cc3)C(=O)N2[C@H]1C(=O)O [Amoxicillin]	2.8	7.2	–	–
CC[C@H]1OC(=O)[C@H](C)[C@@H](O[C@H]2C[C@@](C)(OC)[C@@H](O)[C@H](C)O2)[C@H](C)[C@@H](O[C@@H]2O[C@H](C)C[C@H](N(C)C)[C@H]2O)[C@](C)(OC)C[C@@H](C)C(=O)[C@H](C)[C@@H](O)[C@]1(C)O [clarithromycin]	–	–	susceptible in vitro	–
CO[C@H]1/C=C/O[C@@]2(C)Oc3c(C)c(O)c4c(O)c(c(/C=N/N5CCN(C)CC5)c(O)c4c3C2=O)NC(=O)/C(C)=C\C=C\[C@H](C)[C@H](O)[C@@H](C)[C@@H](O)[C@@H](C)[C@H](OC(C)=O)[C@@H]1C [Rifampin]	1.7	7.9	–	–
NNC(=O)c1ccncc1 [Isoniazid]	1.82	–	–	–
OCCOCCN1CCN(C(c2ccccc2)c2ccc(Cl)cc2)CC1 (stereo not shown) [Hydroxyzine]	1.8	–	–	–
CC(C)[C@H](N)C(=O)OCCOCn1cnc2c(=O)[nH]c(N)nc21 [Valacyclovir]	1.90	7.47	–	9.43
CC(C)CN(C[C@@H](O)[C@H](Cc1ccccc1)NC(=O)O[C@H]1CCOC1)S(=O)(=O)c1ccc(N)cc1 [Amprenavir]	1.76	11.54	–	–
O=P(O)(O)C(O)(Cc1cccnc1)P(=O)(O)O [Risedronic acid]	0.32	5.09	–	–
C[C@@H]1CN(c2c(F)c(N)c3c(=O)c(C(=O)O)cn(C4CC4)c3c2F)C[C@H](C)N1 [sparfloxacin]	–	–	susceptible in vitro	–
CCCN(CCC)S(=O)(=O)c1ccc(C(=O)O)cc1 [Probenicid]	3.4	–	–	–
CC[C@H]1OC(=O)[C@H](C)[C@@H](O[C@H]2C[C@@](C)(OC)[C@@H](O)[C@H](C)O2)[C@H](C)[C@@H](O[C@@H]2O[C@H](C)C[C@H](N(C)C)[C@H]2O)[C@](C)(O)C[C@@H](C)C(=O)[C@H](C)[C@@H](O)[C@]1(C)O [erythromycin]	–	–	susceptible in vitro	–
Cc1ccccc1-n1c(C)nc2ccccc2c1=O [Methaqualone]	2.5	–	–	–
CCS(=O)(=O)CCn1c([N+](=O)[O-])cnc1C [Tinidazole]	2.34	–	–	–
O=C(O)c1cccc(C(=O)O)n1 [Dipicolinic Acid]	–	4.97	–	–
Cc1nc2n(c(=O)c1CCN1CCC(c3noc4cc(F)ccc34)CC1)CCCC2O (stereo not shown) [9-Hydroxy-risperidone]	2.77	7.86	–	–
CN(C)CCc1c[nH]c2cccc(OP(=O)(O)O)c12 [Psilocybin]	0.2	–	–	–
COc1ccc2[nH]c([S+]([O-])Cc3ncc(C)c(OC)c3C)nc2c1 (stereo not shown) [Omeprazole]	–	8.8	–	–
CCOC(=O)c1ncn2c1CN(C)C(=O)c1cc(F)ccc1-2 [Flumazenil]	1.7	–	–	–
C[C@H]1c2cccc(O)c2C(=O)C2=C(O)[C@]3(O)C(=O)C(C(N)=O)=C(O)[C@@H](N(C)C)[C@@H]3[C@@H](O)[C@@H]21 [Doxycycline]	3.5	7.7	–	9.5
CN(C)CCc1c[nH]c2ccccc12 [Dimethyltryptamine]	2	–	–	–
NCC1(CC(=O)O)CCCCC1 [Neurontin]	3.68	10.70	–	–
C[N+](C)(C)C[C@H](O)CC(=O)[O-] [L-carnitine]	3.8	–	–	–
O=C(O)c1ccccc1Nc1cccc(C(F)(F)F)c1 [Flufenamic acid]	3.9	–	–	–
C[C@H](N)C(=O)N[C@@H](C)C(=O)N[C@H]1[C@@H]2CN(c3nc4c(cc3F)c(=O)c(C(=O)O)cn4-c3ccc(F)cc3F)C[C@@H]21 [Alatrofloxacin]	0.64	8.12	–	–
